In US8853194B2, “Sterol derivatives and their synthesis and use” (priority 2009, dated 2014):
Like-named read-outs stand apart in the source and are kept apart here.

Tests used:
P21 = details: tumor tissue, ratio to β-actin, n=3
Protocol: (§1) 3. Detecting the activity of tumor cells VEGF, P53, P21, Bcl-2 (taking β-Actin as an internal reference)
(§2) Using Protein Electrophoresis (Western Blot) Method
(§3) A bean sized tumor tissue dissected previously was shredded and put into a pre-cooled tissue grinder. 400 μl tissue lysis solution was added. After 10 minutes carefully grinding, the mixture was transferred into a 1.5 ml centrifugal tube, and then, after intensely vortexing the tube for 15 seconds, the mixture was placed on ice for 10 minutes and repeatedly oscillated. After centrifuging 20 minutes (12000 rpm), the supernatant was collected, transferred into a pre-cooled Eppendorf tube, and then separately charged and frozen stored at −80° C. for detecting the activity level of various antibodies.
(§4) 3.4.3 Reaction with the first antibody: The first antibody was diluted by TBST solution at a ratio of 1:200, and then reacted with the PVDF film at 4° C. for a night. In the next day, after balanced at room temperature for one hour, the reaction mixture was washed with TBST for 3 times.

P53 = details: tumor tissue, ratio to β-actin, n=3
Protocol: as §1, §2, §3, §4

VEGF = details: tumor tissue, ratio to β-actin, n=3
Protocol: as §1, §2, §3, §4

mouse hepatoma cells H22 = system: mouse hepatoma cells H22
Protocol: (§5) Ascites mice S180 and H22 that had been vaccinated 7 days were sacrificed by cervical, from which ascites were obtained under sterile conditions respectively; the obtained ascites were washed twice with culture medium RPMI1640, and prepared to a 2×10^7/ml suspension in sterile physiological saline. The suspension of cell S180 was inoculated subcutaneously in the right axillas of 40 mice (0.1 ml/mouse) to produce solid tumor models; while the suspension of cell H22 was inoculated in abdominal cavities of 40 mice (0.2 ml/mouse) by conditional means under sterile conditions to produce ascites tumor models.
(§6) 90 mice were randomly divided into 9 groups of 3 types, wherein the first type group was a normal control group, the second type groups were S180 solid tumor groups including a positive (cyclophosphamide) control group, a negative control group, a low dose group and a high dose group, and the third type groups were H22 ascites groups including a positive (cyclophosphamide) control group, a negative control group, a low dose group and a high dose group. There were 10 mice in each group. The experiment was repeated for three times.
(§7) […], the negative control group was injected same volume of corn oil, and the positive control group was injected cyclophosphamide injection solution with the dose of 0.02 g/(Kg.d). The used injection volume was 0.1 ml/mouse and the injection was given as intraperitoneal injection every other day for 15 days. During the 15 days, general activities, fur, feces, etc. of the mice were daily observed. 24 hours after the last administration, mice that had been inoculated subcutaneously with S180 were sacrificed by cervical, from which tumors, thymus and spleen were taken out. After the last administration, mice that had been inoculated in abdominal cavities with H22 were conventionally bred continually, weighted and observed the survival time every day until all the mice in the negative group were dead.
24 hours after the inoculation of ascites, the weight and the amount of abdominal circumference of the mice in the groups of ascites models were measured. The drug administration and breeding were continued according to different groups, the weight and the abdominal circumference were measured daily until one day before death. The weight increase (g) and abdominal-circumference increase (cm) were calculated. The experiment started on the day of tumor inoculation and ended on the day when all the mice in the negative control group were dead; the time of deaths were recorded, and the survival extending rate was calculated. Survival Extending Rate(%)=[(mean survival days of treatment group−mean survival days of negative control group)/mean survival days of control group]×100%
(§8) After finishing the administration in all mice in the solid tumor group, the mice were sacrificed and their spleens and livers were weighed by electronic balance. The spleen index was equivalent to the spleen weight (mg) of mice in each group divided by the weight of the mice, while the liver index was equivalent to the liver weight […] divided by the weight (g) of the mice.

Bcl-2 = details: tumor tissue, ratio to β-actin, n=3
mouse sarcoma cells S180 = system: mouse sarcoma cells S180
Protocol: as §5, §6, §7, §8
On the next day after drug withdrawal, the mice in the solid-tumor […] group were weighed and sacrificed by cervical, wherein the serum was collected by eye bleeding for later use in subsequent experiments. Tumor tissues were dissected and weighed by electronic balance. The tumor inhibition rate was calculated as follows. Tumor Inhibition Rate(%)=[(mean tumor weight of negative control group−mean tumor weight of treatment group)/mean tumor weight of control group]×100%

[1] = H22 ascites mice, low dose 16 mg/kg i.p. every other day for 15 days
[2] = S180 sarcoma mice, low dose 16 mg/kg i.p. every other day for 15 days

## CC(C)CCC[C@@H](C)[C@H]1CC[C@@H]2[C@]1(C)CC[C@H]1[C@]23C=C[C@]2(CC(=O)CC[C@]12C)OO3 [CL168-6, 5α,8α-cyclicobioxygen-6-cholesten-3-one]
P21
  relative expression level of P21: 0.79±0.07
P53
  relative expression level of P53: 0.74±0.03
VEGF
  relative expression level of VEGF: 0.46±0.08
Mouse hepatoma cells H22; H22 ascites mice, high dose 32 mg/kg i.p. every other day for 15 days
  Abdominal circumference increase (cm): 2.32 ± 0.71^(2)(4) cm
Mouse hepatoma cells H22; [1]
  Abdominal circumference increase (cm): 2.84 ± 0.34^(2)(3) cm
  Survival extending rate (%): 37.11%
  Survival time (day): 13.3 ± 1.77^(4) day
  Weight increase (g): 7.16 ± 1.39^(4) g
Mouse hepatoma cells H22; mouse, in vivo, ip, 16 mg/kg
  Liver index (100 g/g): 4.9 ± 0.24^(1)(4) 100 g/g
  Spleen index (mg/g): 6.53 ± 1.29^(2)(4) mg/g
Mouse hepatoma cells H22; mouse, in vivo, ip, 32 mg/kg
  Liver index (100 g/g): 5.19 ± 0.64^(2)(4) 100 g/g
  Spleen index (mg/g): 5.76 ± 0.96^(2)(4) mg/g
  Survival extending rate (%): 51.55%
  Survival time (day): 14.7 ± 1.41^(4) day
  Weight increase (g): 5.05 ± 1.88^(4) g
Bcl-2
  relative expression level of bcl-2: 0.75±0.04
Mouse sarcoma cells S180; S180 sarcoma mice, high dose 32 mg/kg i.p. every other day for 15 days
  Tumor weight (g): 0.629 ± 0.133^(3) g
Mouse sarcoma cells S180; S180 sarcoma mice, high dose 32 mg/kg i.p. every other day for 15 days, 32 mg/kg
  Tumor inhibition rate (%): 54.58%
Mouse sarcoma cells S180; [2]
  Tumor weight (g): 0.771 ± 0.407^ g
  Weight increase: 6.71 ± 1.22 g
Mouse sarcoma cells S180; S180 sarcoma mice, low dose 16 mg/kg i.p. every other day for 15 days, 16 mg/kg
  Tumor inhibition rate (%): 44.33%
Mouse sarcoma cells S180; mouse, in vivo, ip, 16 mg/kg
  Liver index (100 g/g): 4.45 ± 0.19 100 g/g
  Spleen index (mg/g): 5.32 ± 0.68^(2)(4) mg/g
Mouse sarcoma cells S180; mouse, in vivo, ip, 32 mg/kg
  Liver index (100 g/g): 4.38 ± 0.13 100 g/g
  Spleen index (mg/g): 5.34 ± 0.73^(2)(4) mg/g
  Weight increase: 6.00 ± 1.11 g
